Tests used:
[1] = target: T1, ATP-dependent translocase ABCB1 (Homo sapiens, UniProt P08183); experiment: TP_TRANSPORTER: transepithelial transport (basal to apical) in HCT-8 cells; type: functional, cell-based
[2] = target: T1, ATP-dependent translocase ABCB1; experiment: TP_TRANSPORTER: inhibition of Rhodamine 123 transepithelial transport (basal to apical) (R123: 13 uM, Saquinavir: 20uM) in HCT-8 cells; type: functional, cell-based; details: hct-8, 20 µM

T1 sequence (P08183 whole entry): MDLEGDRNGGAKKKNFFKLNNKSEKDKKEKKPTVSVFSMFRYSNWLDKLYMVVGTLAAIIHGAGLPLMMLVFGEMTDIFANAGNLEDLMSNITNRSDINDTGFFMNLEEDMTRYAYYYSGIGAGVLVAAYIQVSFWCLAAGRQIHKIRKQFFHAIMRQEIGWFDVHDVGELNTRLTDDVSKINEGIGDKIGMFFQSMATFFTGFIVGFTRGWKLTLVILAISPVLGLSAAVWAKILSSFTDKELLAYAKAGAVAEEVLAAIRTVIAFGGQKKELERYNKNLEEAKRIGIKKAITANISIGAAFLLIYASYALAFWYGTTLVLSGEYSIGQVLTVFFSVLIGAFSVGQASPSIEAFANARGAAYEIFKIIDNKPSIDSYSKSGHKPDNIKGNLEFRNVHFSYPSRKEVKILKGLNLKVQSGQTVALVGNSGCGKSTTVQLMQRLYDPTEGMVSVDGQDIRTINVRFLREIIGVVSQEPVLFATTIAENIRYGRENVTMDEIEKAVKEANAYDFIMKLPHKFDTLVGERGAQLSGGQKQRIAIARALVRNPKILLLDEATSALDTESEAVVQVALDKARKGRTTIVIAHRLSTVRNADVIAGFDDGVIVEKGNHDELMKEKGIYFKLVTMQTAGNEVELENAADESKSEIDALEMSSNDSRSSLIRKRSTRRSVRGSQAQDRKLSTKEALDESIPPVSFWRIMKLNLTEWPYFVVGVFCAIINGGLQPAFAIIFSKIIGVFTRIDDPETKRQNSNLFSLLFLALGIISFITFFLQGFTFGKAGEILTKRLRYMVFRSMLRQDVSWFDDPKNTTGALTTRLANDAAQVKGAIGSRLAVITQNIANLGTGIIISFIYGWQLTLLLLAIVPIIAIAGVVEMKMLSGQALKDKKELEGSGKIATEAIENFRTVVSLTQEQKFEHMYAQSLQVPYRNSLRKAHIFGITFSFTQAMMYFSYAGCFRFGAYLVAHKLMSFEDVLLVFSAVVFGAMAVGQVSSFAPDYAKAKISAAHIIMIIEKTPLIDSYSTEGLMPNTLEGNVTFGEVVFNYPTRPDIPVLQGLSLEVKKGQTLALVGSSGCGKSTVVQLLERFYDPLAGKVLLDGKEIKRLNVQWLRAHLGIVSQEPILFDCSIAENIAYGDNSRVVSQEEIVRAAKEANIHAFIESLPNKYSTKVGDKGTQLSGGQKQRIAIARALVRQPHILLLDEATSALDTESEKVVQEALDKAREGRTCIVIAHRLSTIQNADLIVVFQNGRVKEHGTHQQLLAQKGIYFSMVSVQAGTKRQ

Activity [1]	Structure (SMILES)	Activity [2]
substrate [+]	COC(=O)c1ccccc1-c1c2ccc(=N)cc-2oc2cc(N)ccc12.Cl [RHODAMINE123]	
substrate [+]	CC(C)(C)NC(=O)[C@@H]1C[C@@H]2CCCC[C@@H]2CN1C[C@@H](O)[C@H](Cc1ccccc1)NC(=O)[C@H](CC(N)=O)NC(=O)c1ccc2ccccc2n1	inhibitor [(at a rough estimate) 45 % of control]

— ChEMBL document CHEMBL2074386, “Saquinavir, an HIV protease inhibitor, is transported by P-glycoprotein” (J Pharmacol Exp Ther, 1998)
